Measurements taken from ChEMBL document CHEMBL3885881, “DrugMatrix”.

Species on record: Rattus norvegicus
Test: DrugMatrix - Regimen: Daily Repeat
Type: toxicity, organism-based, Sprague-Dawley
Set-up: regimen Daily Repeat, gender Male, age 6-8 weeks
Conditions: in vivo, iv, vehicle 100 % SALINE; for ABSOLUTE BASOPHIL / ABSOLUTE EOSINOPHIL / ABSOLUTE LYMPHOCYTE / ABSOLUTE MONOCYTE / ABSOLUTE SEGMENTED NEUTROPHIL / BASOPHIL / EOSINOPHIL / ERYTHROCYTE COUNT / HEMATOCRIT / HEMOGLOBIN / LEUKOCYTE COUNT / LYMPHOCYTE / MEAN CORPUSCULAR HEMOGLOBIN / MEAN CORPUSCULAR HEMOGLOBIN CONCENTRATION / MEAN CORPUSCULAR VOLUME / MONOCYTE / NEUTROPHIL / NUCLEATED RED BLOOD CELLS / PLATELET COUNT: tissue Blood; for ALANINE AMINOTRANSFERASE / ALBUMIN / ALKALINE PHOSPHATASE / ASPARTATE AMINOTRANSFERASE / BLOOD UREA NITROGEN / CARBON DIOXIDE / CHLORIDE / CHOLESTEROL / CREATINE PHOSPHOKINASE / CREATININE / GLUCOSE / LACTATE DEHYDROGENASE / LIPASE / PHOSPHORUS / POTASSIUM / SODIUM / TOTAL BILIRUBIN / TOTAL PROTEIN / URIC ACID: tissue Plasma
[1] = 0 mg/kg, 72 h, dose level Control, time 3 day
[2] = 0 mg/kg, 120 h, dose level Control, time 5 day
[3] = […], 72 h, dose 0.24 mg/Kg, dose level Low, time 3 day
[4] = […], 72 h, dose 2.5 mg/Kg, dose level High, time 3 day

## CC[C@@]1(O)C(=O)OCc2c1cc1n(c2=O)Cc2cc3ccccc3nc2-1 [CAMPTOTHECIN]
[1]
  ABSOLUTE BASOPHIL: 0 CELLS/uL
  ABSOLUTE EOSINOPHIL: 21.67 CELLS/uL
  ABSOLUTE LYMPHOCYTE: 10193.67 CELLS/uL
  ABSOLUTE MONOCYTE: 165.83 CELLS/uL
  ABSOLUTE SEGMENTED NEUTROPHIL: 702.17 CELLS/uL
  BASOPHIL: 0%
  EOSINOPHIL: 0.17%
  ERYTHROCYTE COUNT: 5.39 x10E6/uL
  HEMATOCRIT: 34.62%
  HEMOGLOBIN: 13.8 G/DL
  LEUKOCYTE COUNT: 11.08 x10E3/uL
  LYMPHOCYTE: 91.83%
  MEAN CORPUSCULAR HEMOGLOBIN: 25.68 pg
  MEAN CORPUSCULAR HEMOGLOBIN CONCENTRATION: 39.9 G/DL
  MEAN CORPUSCULAR VOLUME: 64.37 fL
  MONOCYTE: 1.5%
  NEUTROPHIL: 6.5%
  NUCLEATED RED BLOOD CELLS: 0 /100WBC
  PLATELET COUNT: 1202.83 x10E3/uL
  ALANINE AMINOTRANSFERASE: 55.5 u/L
  ALBUMIN: 4.22 G/DL
  ALKALINE PHOSPHATASE: 406.83 u/L
  ASPARTATE AMINOTRANSFERASE: 101.5 u/L
  BLOOD UREA NITROGEN: 13.5 mg/dL
  CARBON DIOXIDE: 30.33 mmol/L
  CHLORIDE: 102.17 MEQ/L
  CHOLESTEROL: 63.67 mg/dL
  CREATINE PHOSPHOKINASE: 732.67 u/L
  CREATININE: 0.2 mg/dL
  GLUCOSE: 157 mg/dL
  LACTATE DEHYDROGENASE: 442.5 u/L
  LIPASE: 10.83 u/L
  PHOSPHORUS: 12.68 mg/dL
  POTASSIUM: 5.67 MEQ/L
  SODIUM: 144 MEQ/L
  TOTAL BILIRUBIN: 0.15 mg/dL
  TOTAL PROTEIN: 6.02 G/DL
  URIC ACID: 1.55 mg/dL
[2]
  ABSOLUTE BASOPHIL: 0 CELLS/uL
  ABSOLUTE EOSINOPHIL: 17 CELLS/uL
  ABSOLUTE LYMPHOCYTE: 11849.17 CELLS/uL
  ABSOLUTE MONOCYTE: 69.83 CELLS/uL
  ABSOLUTE SEGMENTED NEUTROPHIL: 730.67 CELLS/uL
  BASOPHIL: 0%
  EOSINOPHIL: 0.17%
  ERYTHROCYTE COUNT: 5.93 x10E6/uL
  HEMATOCRIT: 37.42%
  HEMOGLOBIN: 14.4 G/DL
  LEUKOCYTE COUNT: 12.67 x10E3/uL
  LYMPHOCYTE: 93.17%
  MEAN CORPUSCULAR HEMOGLOBIN: 24.32 pg
  MEAN CORPUSCULAR HEMOGLOBIN CONCENTRATION: 38.5 G/DL
  MEAN CORPUSCULAR VOLUME: 63.08 fL
  MONOCYTE: 0.5%
  NEUTROPHIL: 6.17%
  NUCLEATED RED BLOOD CELLS: 0 /100WBC
  PLATELET COUNT: 1170.5 x10E3/uL
  ALANINE AMINOTRANSFERASE: 51 u/L
  ALBUMIN: 4.12 G/DL
  ALKALINE PHOSPHATASE: 392.67 u/L
  ASPARTATE AMINOTRANSFERASE: 81.67 u/L
  BLOOD UREA NITROGEN: 16.17 mg/dL
  CARBON DIOXIDE: 30.67 mmol/L
  CHLORIDE: 100.5 MEQ/L
  CHOLESTEROL: 64.83 mg/dL
  CREATINE PHOSPHOKINASE: 242.67 u/L
  CREATININE: 0.2 mg/dL
  GLUCOSE: 186.83 mg/dL
  LACTATE DEHYDROGENASE: 188 u/L
  LIPASE: 10.83 u/L
  PHOSPHORUS: 11.67 mg/dL
  POTASSIUM: 5.51 MEQ/L
  SODIUM: 142.55 MEQ/L
  TOTAL BILIRUBIN: 0.22 mg/dL
  TOTAL PROTEIN: 6.08 G/DL
  URIC ACID: 1.85 mg/dL
[3]
  ABSOLUTE BASOPHIL: 0 CELLS/uL
  ABSOLUTE EOSINOPHIL: 41.67 CELLS/uL
  ABSOLUTE LYMPHOCYTE: 12074 CELLS/uL
  ABSOLUTE MONOCYTE: 83.33 CELLS/uL
  ABSOLUTE SEGMENTED NEUTROPHIL: 834.33 CELLS/uL
  BASOPHIL: 0%
  EOSINOPHIL: 0.33%
  ERYTHROCYTE COUNT: 5.45 x10E6/uL
  HEMATOCRIT: 34.8%
  HEMOGLOBIN: 13.63 G/DL
  LEUKOCYTE COUNT: 13.03 x10E3/uL
  LYMPHOCYTE: 92.67%
  MEAN CORPUSCULAR HEMOGLOBIN: 25.13 pg
  MEAN CORPUSCULAR HEMOGLOBIN CONCENTRATION: 39.23 G/DL
  MEAN CORPUSCULAR VOLUME: 63.97 fL
  MONOCYTE: 0.67%
  NEUTROPHIL: 6.33%
  NUCLEATED RED BLOOD CELLS: 0 /100WBC
  PLATELET COUNT: 732.67 x10E3/uL
[4]
  ABSOLUTE BASOPHIL: 0 CELLS/uL
  ABSOLUTE EOSINOPHIL: 0 CELLS/uL
  ABSOLUTE LYMPHOCYTE: 9985 CELLS/uL
  ABSOLUTE MONOCYTE: 46 CELLS/uL
  ABSOLUTE SEGMENTED NEUTROPHIL: 602.33 CELLS/uL
  BASOPHIL: 0%
  EOSINOPHIL: 0%
  ERYTHROCYTE COUNT: 5.09 x10E6/uL
  HEMATOCRIT: 32.33%
  HEMOGLOBIN: 13.2 G/DL
  LEUKOCYTE COUNT: 10.63 x10E3/uL
  LYMPHOCYTE: 94%
  MEAN CORPUSCULAR HEMOGLOBIN: 25.93 pg
  MEAN CORPUSCULAR HEMOGLOBIN CONCENTRATION: 40.87 G/DL
  MEAN CORPUSCULAR VOLUME: 63.53 fL
  MONOCYTE: 0.33%
  NEUTROPHIL: 5.67%
  NUCLEATED RED BLOOD CELLS: 0 /100WBC
  PLATELET COUNT: 1247.67 x10E3/uL
